According to US11439148B2, “Pyrimidine derivatives” (SYNGENTA PARTICIPATIONS AG, priority 2017, dated 2022):
Values joined by “and” are separate entries in the source; they are usually repeats but may differ in a detail not shown here. Equal values may be shown once.

Assays:
Type in all cases: in vivo
[1] = system: Abutilon theophrasti (ABUTH); assay: Adjuvant efficacy with nicosulfuron, glasshouse spray test; conditions: nicosulfuron WG, mean over 15 and 60 g/ha and 3 replicates; adjuvant 0.2% v/v (none in No Adjuvant rows); % leaf area killed, 21 days after application; Tests 1-4 separate runs
Experimental: (§1) The efficacy of adjuvants 1-12 as adjuvants for the herbicide nicosulfuron were tested in a glasshouse against four weed species sown into standard soil in pots and cultivated under controlled conditions in a glasshouse (at 24/18° C. day/night; 16 hours light; 65% humidity). Nicosulfuron was added to the spray tank as a standard WG (water dispersible granule) formulation.
(§2) The spray tests were also carried out using nicosulfuron in conjunction with adjuvants 1-12. The adjuvant was added to the spray solution at a rate of 0.2% v/v. All spray solutions also contained 12.5% v/v of iso-Propanol. The weed species and their BBCH growth stage at spraying were Abutilon theophrasti (ABUTH; growth stage 13), Chenopodium album (CHEAL; growth stage 13-14), Digitaria sanguinalis (DIGSA; growth stage 11), and Setaria viridis (SETVI; growth stage 13). Each spray test was replicated three times. The test plants were then grown in a glasshouse under controlled conditions (at 24/18° C. day/night; 16 hours light; 65% humidity) and watered twice a day. The efficacy of the herbicide was assessed visually and expressed as a percentage of the leaf area killed. Samples were assessed at a time period of 21 days following application. The results shown in Table 1 below are mean averages over the two rates of nicosulfuron, and the three replicates.

[2] = system: Chenopodium album (CHEAL); assay: as above; conditions: nicosulfuron WG, mean over 15 and 60 g/ha and 3 replicates; adjuvant 0.2% v/v (none in No Adjuvant rows); % leaf area killed, 21 days after application; Tests 1-4 separate runs
Experimental: as §1, §2

[3] = system: Digitaria sanguinalis (DIGSA); assay: as above; conditions: nicosulfuron WG, mean over 15 and 60 g/ha and 3 replicates; adjuvant 0.2% v/v (none in No Adjuvant rows); % leaf area killed, 21 days after application; Tests 1-4 separate runs
Experimental: as §1, §2

Setaria viridis (SETVI) = assay: as above; conditions: nicosulfuron WG, mean over 15 and 60 g/ha and 3 replicates; adjuvant 0.2% v/v (none in No Adjuvant rows); % leaf area killed, 21 days after application; Tests 1-4 separate runs
Experimental: as §1, §2

[4] = system: four weed species (ABUTH, CHEAL, DIGSA, SETVI); assay: Adjuvant efficacy with nicosulfuron, glasshouse spray test, average over all species; conditions: nicosulfuron WG, mean over 15 and 60 g/ha, adjuvant 0.2% v/v (none in No Adjuvant rows), 21 days, average of ABUTH
Experimental: as §1, §2

[5] = system: Brachiaria platyphylla (BRAPP); assay: Adjuvant efficacy with mesotrione, glasshouse spray test; conditions: mesotrione SC, mean over 30 and 60 g/ha and 3 replicates; adjuvant 0.2% v/v (none in No Adjuvant rows); % leaf area killed, 21 days after application; Tests 1-3 separate runs
Experimental: (§3) The efficacy of adjuvants 1-12 as an adjuvant for the herbicide mesotrione was tested in a glasshouse against four weed species sown into standard soil in pots and cultivated under controlled conditions in a glasshouse (at 24/18° C. day/night; 16 hours light; 65% humidity). Mesotrione was added to the spray tank as a standard SC (suspension concentrate) formulation.
(§4) The spray tests were also carried out using mesotrione in conjunction with adjuvants 1-12. The adjuvants were added to the spray solution at a rate of 0.2% v/v unless otherwise stated. All spray solutions also contained 10% w/w of iso-Propanol. The weed species and their BBCH growth stage at spraying were Brachiaria platyphylla (BRAPP; growth stage 13-14) or Brachiaria plantaginea (BRAPL; growth stage 13-14), Commelina benghalensis (COMBE; growth stage 13), Digitaria sanguinalis (DIGSA; growth stage 14), and Polygonum convolvulus (POLCO; growth stage 13-14). Each spray test was replicated three times.
(§5) The test plants were then grown in a glasshouse under controlled conditions (at 24/18° C. day/night; 16 hours light; 65% humidity) and watered twice a day. The efficacy of the herbicide was assessed visually and expressed as a percentage of the leaf area killed. Samples were assessed at a time period of 21 days following application. The results shown in Table 3 below are mean averages over the two rates of mesotrione and the three replicates.

[6] = system: weed species BRAPP, COMBE, DIGSA, POLCO; assay: Adjuvant efficacy with mesotrione, glasshouse spray test, average over all species (BRAPP set); conditions: mesotrione SC, mean over 30 and 60 g/ha; adjuvant 0.2% v/v (none in No Adjuvant rows); 21 days; Tests 1-3, species set with BRAPP (COMBE only in Test 2)
Experimental: as §3, §4, §5

[7] = system: four weed species (ALOMY, AVEFA, LOLPE, SETVI); assay: Adjuvant efficacy with pinoxaden, glasshouse spray test, average over all species; conditions: pinoxaden EC, mean over 7.5 and 15 g/ha, adjuvant 0.2% v/v (none in No Adjuvant rows), 21 days, average of ALOMY
Experimental: as §1, with “pinoxaden” for “nicosulfuron”, “species,” for “species”, “20/16°” for “24/18°”, “Pinoxaden” for “Nicosulfuron”, “EC (emulsifiable concentrate)” for “WG (water dispersible granule)”
The spray tests were also carried out using pinoxaden in conjunction with adjuvants 1-12. The adjuvants were added to the spray solution at a rate of 0.2% v/v unless otherwise stated. All spray solutions also contained 10% w/w of iso-Propanol. The weed species and their BBCH growth stage at spraying were Avena fatua (AVEFA; growth stage 12), Lolium perenne (LOLPE; growth stage 13), Alopecurus myosuroides (ALOMY; growth stage 13), and Setaria viridis (SETVI; growth stage 13-14). Each spray test was replicated three times. The test plants were then grown in a glasshouse under controlled conditions (at 20/16° C. day/night; 16 hours light; 65% humidity) and watered twice a day. The efficacy of the herbicide was assessed visually and expressed as a percentage of the leaf area killed. Samples were assessed at a time period of 21 days following application. The results shown in Table 4 below are mean averages over the two rates of pinoxaden, and the three replicates.

Septoria tritici [8] = assay: Adjuvant efficacy with isopyrazam on inoculated wheat plants; conditions: isopyrazam SC, mean over 6.5, 16, 40 and 100 mg/l and 4 replicates, sprayed 4 days after inoculation, percentage of leaf area infected 17-18 days after infection, Tests 1-3 separate runs
Experimental: Adjuvants 6, 7, 8 and 10 were tested as adjuvants for agrochemical compositions comprising isopyrazam.
Two week old wheat plants were inoculated with the fungus Septoria tritici. […] All spray solutions also contained 10% v/v of iso-Propanol. The leaves of the plants were assessed visually 17-18 days after infection and the damage was expressed as the percentage of the leaf area infected. Each spray test was replicated four times across the four application rates.
The results shown in Table 6 below are mean averages over the four rates of isopyrazam and the four replicates.

Septoria tritici [9] = assay: Adjuvant efficacy with epoxiconazole on inoculated wheat plants; conditions: epoxiconazole SC 1.5, 4, 8.5 and 20 mg/l, 4 replicates, adjuvant 0.1% v/v (none in No Adjuvant rows), sprayed 4 days after inoculation, percentage of leaf area infected 17-18 days after infection, Tests 1-3 separate runs
Experimental: Adjuvants 6, 7, 8 and 10 were tested as adjuvants for agrochemical compositions comprising epoxiconazole.
Two week old wheat plants were inoculated with the fungus Septoria tritici. […] All spray solutions also contained 10% v/v of iso-Propanol. The leaves of the plants were assessed visually 17-18 days after infection and the damage was expressed as the percentage of the leaf area infected.

## CCCCCCOc1cc(OCCOCCOC)ncn1 [Adjuvant 1]
[1]
  Mean % Herbicidal Activity ABUTH: 64%
[2]
  Mean % Herbicidal Activity CHEAL: 84%
[3]
  Mean % Herbicidal Activity DIGSA: 88%
Setaria viridis (SETVI)
  Mean % Herbicidal Activity SETVI: 93%
[4]
  Mean % Herbicidal Activity Average over all Species: 83%
[5]
  Mean % Herbicidal Activity BRAPP: 53%
[6]
  Mean % Herbicidal Activity Average over all Species: 72%
[7]
  Mean % Herbicidal Activity Average over all Species: 55%

## CCCCCCCCCCCCOc1cc(OCCOCCOCCOCCOCCOCCOCCOCCOCCOCCOC)ncn1 [Adjuvant 7]
[1]
  Mean % Herbicidal Activity ABUTH: 59%
[2]
  Mean % Herbicidal Activity CHEAL: 86%
[3]
  Mean % Herbicidal Activity DIGSA: 84%
Setaria viridis (SETVI)
  Mean % Herbicidal Activity SETVI: 96%
[4]
  Mean % Herbicidal Activity Average over all Species: 81%
[5]
  Mean % Herbicidal Activity BRAPP: 68%
[6]
  Mean % Herbicidal Activity Average over all Species: 73%
[7]
  Mean % Herbicidal Activity Average over all Species: 84%
Septoria tritici [8]
  Disease Damage Mean: 12%
Septoria tritici [9]
  Disease Damage Mean: 12%

## CCCCCCOc1cc(OCCOCCOCCOCCOCCOCCOCCOCCOCCOCCOCCOCCOCCOCCOCCOCCOCCOCCOCCOCCOC)ncn1 [Adjuvant 3]
[1]
  Mean % Herbicidal Activity ABUTH: 49%
[2]
  Mean % Herbicidal Activity CHEAL: 76%
[3]
  Mean % Herbicidal Activity DIGSA: 88%
Setaria viridis (SETVI)
  Mean % Herbicidal Activity SETVI: 93%
[4]
  Mean % Herbicidal Activity Average over all Species: 76%
[5]
  Mean % Herbicidal Activity BRAPP: 38%
[6]
  Mean % Herbicidal Activity Average over all Species: 71%
[7]
  Mean % Herbicidal Activity Average over all Species: 44%

## CCCCCCCCCCCCCCCCOc1cc(OCCOCCOCCOCCOCCOCCOCCOCCOCCOCCOC)ncn1 [Adjuvant 8]
[1]
  Mean % Herbicidal Activity ABUTH: 53% and 66% and 74%
[2]
  Mean % Herbicidal Activity CHEAL: 85% (2×) and 83%
[3]
  Mean % Herbicidal Activity DIGSA: 87% and 93% and 89%
Setaria viridis (SETVI)
  Mean % Herbicidal Activity SETVI: 96% (2×) and 95%
[4]
  Mean % Herbicidal Activity Average over all Species: 80% and 85% and 86%
[7]
  Mean % Herbicidal Activity Average over all Species: 69% and 56% and 67%
Septoria tritici [8]
  Disease Damage Mean: 20%
Septoria tritici [9]
  Disease Damage Mean: 36%

## CCCCCCCCCCCCOc1cc(OCC(C)OCC(C)OCC(C)OC)ncn1 (stereo not drawn) [Adjuvant 12]
[1]
  Mean % Herbicidal Activity ABUTH: 66%
[2]
  Mean % Herbicidal Activity CHEAL: 83%
[3]
  Mean % Herbicidal Activity DIGSA: 93%
Setaria viridis (SETVI)
  Mean % Herbicidal Activity SETVI: 96%
[4]
  Mean % Herbicidal Activity Average over all Species: 85%
[5]
  Mean % Herbicidal Activity BRAPP: 69%
[6]
  Mean % Herbicidal Activity Average over all Species: 84%
[7]
  Mean % Herbicidal Activity Average over all Species: 70%

## CCCCCCCCCOc1cc(OCCOCCOCCOCCOCCOCCOCCOC)ncn1 [Adjuvant 4]
[1]
  Mean % Herbicidal Activity ABUTH: 48%
[2]
  Mean % Herbicidal Activity CHEAL: 78%
[3]
  Mean % Herbicidal Activity DIGSA: 70%
Setaria viridis (SETVI)
  Mean % Herbicidal Activity SETVI: 94%
[4]
  Mean % Herbicidal Activity Average over all Species: 73%
[5]
  Mean % Herbicidal Activity BRAPP: 43%
[6]
  Mean % Herbicidal Activity Average over all Species: 73%
[7]
  Mean % Herbicidal Activity Average over all Species: 52%

## CCCCCCCCCOc1cc(OCCOCCOCCOCCOCCOCCOCCOCCOCCOCCOC)ncn1 [Adjuvant 5]
[1]
  Mean % Herbicidal Activity ABUTH: 49%
[2]
  Mean % Herbicidal Activity CHEAL: 63%
[3]
  Mean % Herbicidal Activity DIGSA: 49%
Setaria viridis (SETVI)
  Mean % Herbicidal Activity SETVI: 91%
[4]
  Mean % Herbicidal Activity Average over all Species: 63%
[5]
  Mean % Herbicidal Activity BRAPP: 48%
[6]
  Mean % Herbicidal Activity Average over all Species: 71%
[7]
  Mean % Herbicidal Activity Average over all Species: 41%

## CCCCCCCCC=CCCCCCCCCOc1cc(OCCOCCOCCOCCOCCOCCOCCOCCOCCOCCOC)ncn1 [Adjuvant 10]
[1]
  Mean % Herbicidal Activity ABUTH: 58%
[2]
  Mean % Herbicidal Activity CHEAL: 80%
[3]
  Mean % Herbicidal Activity DIGSA: 88%
Setaria viridis (SETVI)
  Mean % Herbicidal Activity SETVI: 97%
[4]
  Mean % Herbicidal Activity Average over all Species: 81%
[5]
  Mean % Herbicidal Activity BRAPP: 61%
[6]
  Mean % Herbicidal Activity Average over all Species: 80%
[7]
  Mean % Herbicidal Activity Average over all Species: 50%
Septoria tritici [8]
  Disease Damage Mean: 17% and 14%
Septoria tritici [9]
  Disease Damage Mean: 26%

## CCCCCCCCCCCCOc1cc(OCCOCCOCCOCCOCCOCCOCCOC)ncn1 [Adjuvant 6]
[1]
  Mean % Herbicidal Activity ABUTH: 38%
[2]
  Mean % Herbicidal Activity CHEAL: 83%
[3]
  Mean % Herbicidal Activity DIGSA: 74%
Setaria viridis (SETVI)
  Mean % Herbicidal Activity SETVI: 91%
[4]
  Mean % Herbicidal Activity Average over all Species: 71%
[5]
  Mean % Herbicidal Activity BRAPP: 53%
[6]
  Mean % Herbicidal Activity Average over all Species: 76%
[7]
  Mean % Herbicidal Activity Average over all Species: 63%
Septoria tritici [8]
  Disease Damage Mean: 7% and 9% and 12%
Septoria tritici [9]
  Disease Damage Mean: 42% and 10% and 21%

## CCCCCCCCC=CCCCCCCCCOc1cc(OCCOCCOC)ncn1 [Adjuvant 9]
[1]
  Mean % Herbicidal Activity ABUTH: 57%
[2]
  Mean % Herbicidal Activity CHEAL: 82%
[3]
  Mean % Herbicidal Activity DIGSA: 88%
Setaria viridis (SETVI)
  Mean % Herbicidal Activity SETVI: 95%
[4]
  Mean % Herbicidal Activity Average over all Species: 80%
[5]
  Mean % Herbicidal Activity BRAPP: 69%
[6]
  Mean % Herbicidal Activity Average over all Species: 81%
[7]
  Mean % Herbicidal Activity Average over all Species: 58%

## CCCCCCOc1cc(OCCOCCOCCOCCOCCOCCOCCOCCOCCOCCOC)ncn1 [Adjuvant 2]
[1]
  Mean % Herbicidal Activity ABUTH: 61%
[2]
  Mean % Herbicidal Activity CHEAL: 80%
[3]
  Mean % Herbicidal Activity DIGSA: 89%
Setaria viridis (SETVI)
  Mean % Herbicidal Activity SETVI: 97%
[4]
  Mean % Herbicidal Activity Average over all Species: 82%
[5]
  Mean % Herbicidal Activity BRAPP: 52%
[6]
  Mean % Herbicidal Activity Average over all Species: 75%
[7]
  Mean % Herbicidal Activity Average over all Species: 47%

## CCCCCCCCC=CCCCCCCCCOc1cc(OCCOCCOCCOCCOCCOCCOCCOCCOCCOCCOCCOCCOCCOCCOCCOCCOCCOCCOCCOCCOC)ncn1 [Adjuvant 11]
[1]
  Mean % Herbicidal Activity ABUTH: 64%
[2]
  Mean % Herbicidal Activity CHEAL: 82%
[3]
  Mean % Herbicidal Activity DIGSA: 88%
Setaria viridis (SETVI)
  Mean % Herbicidal Activity SETVI: 94%
[4]
  Mean % Herbicidal Activity Average over all Species: 82%
[5]
  Mean % Herbicidal Activity BRAPP: 58%
[6]
  Mean % Herbicidal Activity Average over all Species: 78%
[7]
  Mean % Herbicidal Activity Average over all Species: 38%
